According to PubChem BioAssay (NCI):
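These data come from cells grown in 96-well plates and exposed to compound for 48 hours at five concentrations. At the GI50, growth is halved. TGI: total growth inhibition.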

What was measured:
Experiment in all cases: DTP human tumour cell line panel, 48 h
[1] = system: SF-295 CNS
[2] = system: OVCAR-8 ovarian
[3] = system: T-47D breast
[4] = system: OVCAR-4 ovarian
[5] = system: LOX IMVI melanoma
[6] = system: NCI-H522 lung
[7] = system: MCF7 breast
[8] = system: TK-10 renal
[9] = system: HCC-2998 colon
[10] = system: SK-MEL-2 melanoma
[11] = system: EKVX NSCLC
[12] = system: MOLT-4 leukemia
[13] = system: HCT-15 colon
[14] = system: HT29 colon
[15] = system: CAKI-1 renal
[16] = system: HOP-92 NSCLC
[17] = system: IGROV1 ovarian
[18] = system: SK-MEL-28 melanoma
[19] = system: SR leukemia
[20] = system: SF-268 CNS
[21] = system: SN12C renal
[22] = system: KM12 colon
[23] = system: MDA-MB-468 breast
[24] = system: NCI-H226 lung
[25] = system: A498 renal
[26] = system: COLO 205 colon
[27] = system: U251 CNS
[28] = system: NCI/ADR-RES ovarian
[29] = system: HL-60(TB) leukemia
[30] = system: HOP-62 NSCLC
[31] = system: K-562 leukemia
[32] = system: UACC-62 melanoma
[33] = system: RXF 393 renal
[34] = system: NCI-H23 lung
[35] = system: MDA-MB-435
[36] = system: M14 melanoma
[37] = system: NCI-H460 lung
[38] = system: A549 NSCLC
[39] = system: SNB-19 CNS
[40] = system: 786-0 renal
[41] = system: MALME-3M melanoma
[42] = system: BT-549 breast
[43] = system: HCT-116 colon
[44] = system: DU-145 prostate
[45] = system: OVCAR-3 ovarian
[46] = system: UACC-257 melanoma
[47] = system: ACHN renal
[48] = system: CCRF-CEM leukemia
[49] = system: SNB-75 CNS
[50] = system: OVCAR-5 ovarian
[51] = system: PC-3 prostate
[52] = system: SW-620 colon
[53] = system: SK-OV-3 ovarian
[54] = system: SF-539 CNS
[55] = system: SK-MEL-5 melanoma
[56] = system: RPMI-8226 leukemia
[57] = system: MDA-MB-231 breast
[58] = system: HS 578T breast
[59] = system: UO-31 renal

## CNC(=O)c1cccc(N2CCc3c2ccc(NC(=O)Nc2ccc(N4CCN(C)CC4)c(C(F)(F)F)c2)c3F)c1
[1]
  GI50: 0.717 µM
  TGI: 1.7 µM
[2]
  GI50: 7.5 µM
  TGI: 16.4 µM
[3]
  GI50: 6.33 µM
  TGI: 19.3 µM
[4]
  GI50: 5.07 µM
  TGI: 11.5 µM
[5]
  GI50: 5.15 µM
  TGI: 10.3 µM
[6]
  GI50: 6.46 µM
  TGI: 13.9 µM
[7]
  GI50: 4.63 µM
  TGI: 10.3 µM
[8]
  GI50: 6.21 µM
  TGI: 11.6 µM
[9]
  GI50: 5.3 µM
  TGI: 10.3 µM
[10]
  GI50: 6.15 µM
  TGI: 11.8 µM
[11]
  GI50: 5.05 µM
  TGI: 10.2 µM
[12]
  GI50: 1.7 µM
  TGI: 20.9 µM
[13]
  GI50: 3.92 µM
  TGI: 9.15 µM
[14]
  GI50: 1.44 µM
  TGI: 8.51 µM
[15]
  GI50: 6.04 µM
  TGI: 12 µM
[16]
  GI50: 5.36 µM
  TGI: 11.6 µM
[17]
  GI50: 6.21 µM
  TGI: 11.7 µM
[18]
  GI50: 4.99 µM
  TGI: 9.81 µM
[19]
  GI50: 5.74 µM
  TGI: > 36.5 µM
[20]
  GI50: 4.87 µM
  TGI: 12.3 µM
[21]
  GI50: 5.81 µM
  TGI: 11.1 µM
[22]
  GI50: 0.166 µM
  TGI: 6.5 µM
[23]
  GI50: 5.41 µM
  TGI: 11.3 µM
[24]
  GI50: 6.12 µM
  TGI: 14.6 µM
[25]
  GI50: 5.36 µM
  TGI: 10.4 µM
[26]
  GI50: 6.46 µM
  TGI: 17.5 µM
[27]
  GI50: 3.73 µM
  TGI: 8.59 µM
[28]
  GI50: 7.02 µM
  TGI: 17.5 µM
[29]
  GI50: 7.63 µM
  TGI: 25.7 µM
[30]
  GI50: 5.23 µM
  TGI: 11.9 µM
[31]
  GI50: 6.69 µM
  TGI: > 36.5 µM
[32]
  GI50: 5.9 µM
  TGI: 10.8 µM
[33]
  GI50: 0.976 µM
  TGI: 2.65 µM
[34]
  GI50: 5.97 µM
  TGI: 11.8 µM
[35]
  GI50: 5.28 µM
  TGI: 10.5 µM
[36]
  GI50: 6.78 µM
  TGI: 14.3 µM
[37]
  GI50: 5.27 µM
  TGI: 11.6 µM
[38]
  GI50: 5.75 µM
  TGI: 13.9 µM
[39]
  GI50: 5.48 µM
  TGI: 10.7 µM
[40]
  GI50: 1.99 µM
  TGI: 8.25 µM
[41]
  GI50: 4.17 µM
  TGI: 8.7 µM
[42]
  GI50: 5.14 µM
  TGI: 11.1 µM
[43]
  GI50: 5.06 µM
  TGI: 13.8 µM
[44]
  GI50: 5.68 µM
  TGI: 11.3 µM
[45]
  GI50: 5.04 µM
  TGI: 11 µM
[46]
  GI50: 6.1 µM
  TGI: 12 µM
[47]
  GI50: 5.61 µM
  TGI: 10.5 µM
[48]
  GI50: 5.43 µM
  TGI: 29.3 µM
[49]
  GI50: 1.25 µM
  TGI: 6.93 µM
[50]
  GI50: 5.45 µM
  TGI: 10.3 µM
[51]
  GI50: 3.91 µM
  TGI: 12.1 µM
[52]
  GI50: 1.19 µM
  TGI: 5.23 µM
[53]
  GI50: 5.93 µM
  TGI: 11.7 µM
[54]
  GI50: 1.18 µM
  TGI: 4.94 µM
[55]
  GI50: 5.43 µM
  TGI: 10.4 µM
[56]
  GI50: 1.59 µM
  TGI: > 36.5 µM
[57]
  GI50: 2.93 µM
  TGI: 7.59 µM
[58]
  GI50: 1.46 µM
  TGI: 8.54 µM
[59]
  GI50: 5.86 µM
  TGI: 10.8 µM
